Experimental data: patent US20240417403A1, “CRYSTALLINE FORMS OF QUINAZOLINE DERIVATIVES, PREPARATION, COMPOSITION AND USE THEREOF” (Hoffmann-La Roche Inc., priority 2021, published 2024)
Where a name gives a salt, the structure may show the parent alone. Values belong to the molecule of their own block, whether it stands above or below them.

Tests used:
Format in all cases: physicochemical
[1] = TGA and DSC/mDSC thermal analysis (characterization of forms)
Experimental: In salt screening and evaluation and in polymorph study, TGA was performed using a TA Q500, TA Q5000 or Discovery 5500 TGA from TA Instruments. DSC or mDSC was performed using a TA Q200/Q2000 or Discovery 2500 DSC from TA Instruments.

[2] = Solid state stability, 40° C./75% RH/open for 1 month (XRPD, HPLC purity); conditions: for Purity/Initial by HPLC area % / Form Change: 40° C., 75% RH, open; for Form Change: by XRPD; for Purity change by HPLC (chemical stability) compared with amorphous freebase: 40° C./75% RH; for Solid form change by XRPD (physical stability): 40° C./75% RH/open
Experimental: (§1) An Agilent 1260 HPLC instrument was utilized and detailed chromatographic conditions for purity and solubility analysis were listed in Table 6.
To evaluate the solid state stability of the selected forms (amorphous freebase, Freebase Type F, Fumarate Type A and Fumarate Type B) samples were stored under 40° C./75% RH/open for 1 month. Stability samples were characterized by XRPD to check any solid form change and by HPLC to check purity change.

[3] = Kinetic solubility in FaSSIF; conditions: 37° C.
Experimental: as §1
Kinetic solubility of amorphous freebase and Fumarate Type B/E was measured in FaSSIF to evaluate the solubility. […] After centrifugation, supernatants were collected for HPLC tests.

[4] = Equilibrium solubility in pH 4.5 buffer; conditions: 37° C., stirred 24 hours
Experimental: as §1
About 5˜10 mg of solids were suspended in pH 4.5 buffer to get a mixture. The suspensions were stirred for 24 hours, followed by centrifugation and filtration to obtain supernatants for HPLC test.

[5] = Equilibrium solubility in H2O; conditions: 37° C., stirred 24 hours
Experimental: as §1
About 5˜10 mg of solids were suspended in H2O to get a mixture. The suspensions were stirred for 24 hours, followed by centrifugation and filtration to obtain supernatants for HPLC test.

[6] = Equilibrium solubility in pH 6.8 buffer; conditions: 37° C., stirred 24 hours
Experimental: as §1
About 5˜10 mg of solids were suspended in pH 6.8 buffer to get a mixture. The suspensions were stirred for 24 hours, followed by centrifugation and filtration to obtain supernatants for HPLC test.

[7] = Bulk density, tap density and Carr index (flowability and compressibility); conditions: for Carr index: (ρ1−ρ0)/ρ1; for Tapped density: tapped 200 times
Experimental: Bulk density was determined by adding appropriate amount (m) of material into a 5 mL graduate cylinder and recording its apparent volume (v0). The bulk density was obtained by dividing the amount of material by its apparent volume of the unsettled material (ρ0=m/v0). For tap density, the cylinder was then tapped for 200 times. The tap density was then calculated by dividing the amount of material by its final tapped volume (ρ1=m/v1). Carr index=(ρ1−ρ0)/ρ1.
(§2) The results of amorphous freebase, Freebase Type F, Fumarate Type B and Fumarate Type E for flowability and compressibility were summarized in Table 30. Generally, powders with smaller Karl index would show better compressibility and flowability. And powders with smaller angle of repose would show better flowability.

[8] = Angle of repose (flowability)
Text: Form the angle of repose on a fixed base with a retaining lip to retain a layer of powder on the base. Carefully build up a symmetrical cone of powder. Determine the angle of repose by measuring the height (h) and base radius (r) of the cone of powder and calculating the angle of repose a from the following equation α=tan^−1(h/r).
as §2

[9] = Contact angle against water (wettability)
Experimental: The wettability of the solid forms was evaluated by the contact angle against water.

Hygroscopicity by DVS = conditions: 80% RH, 25° C.
Experimental: DVS is measured via a SMS (Surface Measurement Systems) DVS Intrinsic. The relative humidity at 25° C. is calibrated against deliquescence point of LiCl, Mg(NO3)2 and KCl.
DVS isotherm plot was collected at 25° C. to investigate the selected solid forms stability as a function of humidity. Compared with amorphous freebase, the hygroscopicity of Freebase Type B, Fumarate Type A, Fumarate Type B and Fumarate Type E was lower under 80% RH/25° C.

[10] = Mechanical stability (XRPD form change after grinding and tableting)
Experimental: Mechanical stability of the solid forms was evaluated by monitoring the XRPD form change after grinding (˜5 min) and tableting (˜234 Mpa).

[11] = crystalline salts, listed as HCl salt Type B
[12] = crystalline salts, listed as HCl salt Type A

DSC endotherm (° C., peak) ([1]; free base forms): 71.3 °C
TGA weight loss (%, temp.) ([1]; free base forms, to 140° C.): 9.9 (to 140° C.) %
SMILES: COc1ccc2ncnc(Nc3ccc(Oc4cc5ncnn5cn4)c(C)c3)c2c1O[C@@H]1CCN(C)CC1(F)F [Freebase Type A, (R)-N-(4-([1,2,4]triazolo[1,5-c]pyrimidin-7-yloxy)-3-methylphenyl)-5-((3,3-difluoro-1-methylpiperidin-4-yl)oxy)-6-methoxyquinazolin-4-amine]

TGA weight loss (150° C., %) ([1]; crystalline salts): 10.2%
DSC endotherm (° C., peak) ([1]; crystalline salts): 65.1 °C
SMILES: COc1ccc2ncnc(Nc3ccc(Oc4cc5ncnn5cn4)c(C)c3)c2c1O[C@@H]1CCN(C)CC1(F)F [Mesylate Type A, (R)-N-(4-([1,2,4]triazolo[1,5-c]pyrimidin-7-yloxy)-3-methylphenyl)-5-((3,3-difluoro-1-methylpiperidin-4-yl)oxy)-6-methoxyquinazolin-4-amine]

Purity/Initial by HPLC area % [2]: 99.6%
Form Change [2]: No
Purity change by HPLC (chemical stability) compared with amorphous freebase [2]: lower purity change
Solid form change by XRPD (physical stability) [2]: no form change
Solubility in FaSSIF ([3]; timepoint 1 h): ≥390 µg/mL
Solubility in FaSSIF ([3]; timepoint 2 h): ≥390 µg/mL
Solubility in FaSSIF ([3]; timepoint 24 h): ≥390 µg/mL
Solubility in pH 4.5 buffer [4]: 2.3 mg/mL
Solubility in H2O [5]: ≥5200 µg/mL
Solubility in pH 6.8 buffer [6]: 0.90 mg/mL
Bulk density [7]: 0.36 g/mL
Carr index [7]: 30.4%
Tapped density [7]: 0.52 g/mL
TGA weight loss (150° C., %) ([1]; crystalline salts): 4.9%
TGA weight loss (%, temp.) ([1]; fumarate forms, to 150° C.): 4.9 (to 150° C.) %
Angle of repose [8]: 26.6°
Contact angle [9]: 29.0°
Weight change at 80% RH/25° C. by DVS (Hygroscopicity by DVS): 2.1%
SMILES: COc1ccc2ncnc(Nc3ccc(Oc4cc5ncnn5cn4)c(C)c3)c2c1O[C@@H]1CCN(C)CC1(F)F [Fumarate Type B, (R)-N-(4-([1,2,4]triazolo[1,5-c]pyrimidin-7-yloxy)-3-methylphenyl)-5-((3,3-difluoro-1-methylpiperidin-4-yl)oxy)-6-methoxyquinazolin-4-amine]

Purity/Initial by HPLC area % [2]: 100.3%
Form Change [2]: No
Purity change by HPLC (chemical stability) compared with amorphous freebase [2]: lower purity change
Solid form change by XRPD (physical stability) [2]: no form change
Bulk density [7]: 0.19 g/mL
Carr index [7]: 31.9%
Tapped density [7]: 0.28 g/mL
TGA weight loss (%, temp.) ([1]; free base forms, to 70° C.): 5.7 (to 70° C.) %
Angle of repose [8]: 35.8°
SMILES: COc1ccc2ncnc(Nc3ccc(Oc4cc5ncnn5cn4)c(C)c3)c2c1O[C@@H]1CCN(C)CC1(F)F [Freebase Type F, (R)-N-(4-([1,2,4]triazolo[1,5-c]pyrimidin-7-yloxy)-3-methylphenyl)-5-((3,3-difluoro-1-methylpiperidin-4-yl)oxy)-6-methoxyquinazolin-4-amine]

TGA weight loss (150° C., %) ([1]; crystalline salts): 7.6%
DSC endotherm (° C., peak) ([1]; crystalline salts): 63.4 °C
SMILES: COc1ccc2ncnc(Nc3ccc(Oc4cc5ncnn5cn4)c(C)c3)c2c1O[C@@H]1CCN(C)CC1(F)F [Mesylate Type B, (R)-N-(4-([1,2,4]triazolo[1,5-c]pyrimidin-7-yloxy)-3-methylphenyl)-5-((3,3-difluoro-1-methylpiperidin-4-yl)oxy)-6-methoxyquinazolin-4-amine]

TGA weight loss (150° C., %) ([1]; crystalline salts): 9.5%
SMILES: COc1ccc2ncnc(Nc3ccc(Oc4cc5ncnn5cn4)c(C)c3)c2c1O[C@@H]1CCN(C)CC1(F)F [Phosphate Type A, (R)-N-(4-([1,2,4]triazolo[1,5-c]pyrimidin-7-yloxy)-3-methylphenyl)-5-((3,3-difluoro-1-methylpiperidin-4-yl)oxy)-6-methoxyquinazolin-4-amine]

TGA weight loss (%, temp.) ([1]; free base forms, to 150° C.): 1.5 (to 150° C.) %
SMILES: COc1ccc2ncnc(Nc3ccc(Oc4cc5ncnn5cn4)c(C)c3)c2c1O[C@@H]1CCN(C)CC1(F)F [Freebase Type C, (R)-N-(4-([1,2,4]triazolo[1,5-c]pyrimidin-7-yloxy)-3-methylphenyl)-5-((3,3-difluoro-1-methylpiperidin-4-yl)oxy)-6-methoxyquinazolin-4-amine]

Solubility in FaSSIF ([3]; timepoint 1 h): ≥360 µg/mL
Solubility in FaSSIF ([3]; timepoint 2 h): ≥360 µg/mL
Solubility in FaSSIF ([3]; timepoint 24 h): ≥360 µg/mL
Solubility in pH 4.5 buffer [4]: 1.3 mg/mL
Solubility in H2O [5]: ≥5000 µg/mL
Solubility in pH 6.8 buffer [6]: 0.92 mg/mL
Bulk density [7]: 0.30 g/mL
Carr index [7]: 41.7%
Tapped density [7]: 0.51 g/mL
TGA weight loss (150° C., %) ([1]; crystalline salts): 9.4%
TGA weight loss (%, temp.) ([1]; fumarate forms, to 150° C.): 9.4 (to 150° C.) %
XRPD form change after grinding ([10]; grinding ~5 min): No
XRPD form change after tableting ([10]; tableting ~234 Mpa): No
Angle of repose [8]: 38.3°
Weight change at 80% RH/25° C. by DVS (Hygroscopicity by DVS): 2.1%
SMILES: COc1ccc2ncnc(Nc3ccc(Oc4cc5ncnn5cn4)c(C)c3)c2c1O[C@@H]1CCN(C)CC1(F)F [Fumarate Type E, (R)-N-(4-([1,2,4]triazolo[1,5-c]pyrimidin-7-yloxy)-3-methylphenyl)-5-((3,3-difluoro-1-methylpiperidin-4-yl)oxy)-6-methoxyquinazolin-4-amine]

TGA weight loss (%, temp.) ([1]; free base forms, to 70° C.): 7.3 (to 70° C.) %
SMILES: COc1ccc2ncnc(Nc3ccc(Oc4cc5ncnn5cn4)c(C)c3)c2c1O[C@@H]1CCN(C)CC1(F)F [Freebase Type G, (R)-N-(4-([1,2,4]triazolo[1,5-c]pyrimidin-7-yloxy)-3-methylphenyl)-5-((3,3-difluoro-1-methylpiperidin-4-yl)oxy)-6-methoxyquinazolin-4-amine]

TGA weight loss (150° C., %) ([1]; crystalline salts): 3.7%
SMILES: COc1ccc2ncnc(Nc3ccc(Oc4cc5ncnn5cn4)c(C)c3)c2c1O[C@@H]1CCN(C)CC1(F)F [L-tartrate Type A, (R)-N-(4-([1,2,4]triazolo[1,5-c]pyrimidin-7-yloxy)-3-methylphenyl)-5-((3,3-difluoro-1-methylpiperidin-4-yl)oxy)-6-methoxyquinazolin-4-amine]

TGA weight loss (%, temp.) ([1]; fumarate forms, to 150° C.): 3.6 (to 150° C.) %
SMILES: COc1ccc2ncnc(Nc3ccc(Oc4cc5ncnn5cn4)c(C)c3)c2c1O[C@@H]1CCN(C)CC1(F)F [Amorphous Fumarate, (R)-N-(4-([1,2,4]triazolo[1,5-c]pyrimidin-7-yloxy)-3-methylphenyl)-5-((3,3-difluoro-1-methylpiperidin-4-yl)oxy)-6-methoxyquinazolin-4-amine]

TGA weight loss (150° C., %) [1, 11]: 2.3%
DSC endotherm (° C., peak) [1, 11]: 241.7 °C
SMILES: COc1ccc2ncnc(Nc3ccc(Oc4cc5ncnn5cn4)c(C)c3)c2c1O[C@@H]1CCN(C)CC1(F)F [HCl Salt Type B, (R)-N-(4-([1,2,4]triazolo[1,5-c]pyrimidin-7-yloxy)-3-methylphenyl)-5-((3,3-difluoro-1-methylpiperidin-4-yl)oxy)-6-methoxyquinazolin-4-amine]

TGA weight loss (150° C., %) [1, 12]: 8.8%
DSC endotherm (° C., peak) [1, 12]: 110.0 °C
SMILES: COc1ccc2ncnc(Nc3ccc(Oc4cc5ncnn5cn4)c(C)c3)c2c1O[C@@H]1CCN(C)CC1(F)F [HCl Salt Type A, (R)-N-(4-([1,2,4]triazolo[1,5-c]pyrimidin-7-yloxy)-3-methylphenyl)-5-((3,3-difluoro-1-methylpiperidin-4-yl)oxy)-6-methoxyquinazolin-4-amine]

TGA weight loss (150° C., %) ([1]; crystalline salts): 3.0%
DSC endotherm (° C., peak) ([1]; crystalline salts): 106.7 °C
SMILES: COc1ccc2ncnc(Nc3ccc(Oc4cc5ncnn5cn4)c(C)c3)c2c1O[C@@H]1CCN(C)CC1(F)F [Adipate Type A, (R)-N-(4-([1,2,4]triazolo[1,5-c]pyrimidin-7-yloxy)-3-methylphenyl)-5-((3,3-difluoro-1-methylpiperidin-4-yl)oxy)-6-methoxyquinazolin-4-amine]
